Assay results as given in PMC4994520 (European journal of medicinal chemistry, 2012).
Like-named read-outs stand apart in the source and are kept apart here.

How the values were obtained:
human PDE5 [1] = target: T1, human PDE5 (Homo sapiens, UniProt O76074); test: PDE5 inhibition, IMAP fluorescence polarization phosphodiesterase assay; type: biochemical; details: for inhibition at 10 µM: read-out: % PDE5 inhibition at 10 μM
PDE1A = PDE1A (Homo sapiens, UniProt P54750); test: PDE1A inhibition, IMAP fluorescence polarization assay; type: biochemical
PDE2A = PDE2A (Homo sapiens, UniProt O00408); test: PDE2A inhibition, IMAP fluorescence polarization assay; type: biochemical
PDE3A = PDE3A (Homo sapiens, UniProt Q14432); test: PDE3A inhibition, IMAP fluorescence polarization assay; type: biochemical
PDE3B = PDE3B (Homo sapiens, UniProt Q13370); test: PDE3B inhibition, IMAP fluorescence polarization assay; type: biochemical
PDE9A = PDE9A (Homo sapiens, UniProt O76083); test: PDE9A inhibition, IMAP fluorescence polarization assay; type: biochemical
PDE10A = PDE10A (Homo sapiens, UniProt Q9Y233); test: PDE10A inhibition, IMAP fluorescence polarization assay; type: biochemical
PDE11A = PDE11A (Homo sapiens, UniProt Q9HCR9); test: PDE11A inhibition, IMAP fluorescence polarization assay; type: biochemical; details: for selectivity profile (selectivity index) PDE5 versus PDE11: cGMP as the substrate
human PDE5 [2] = target: T1, human PDE5; details: tadalafil and earlier analogues, Table 1; cited from earlier work
[3] = read-out: PDE1A inhibition IC50 μM, substrate cGMP
[4] = read-out: PDE2A inhibition IC50 μM, substrate cGMP
[5] = read-out: PDE3A inhibition IC50 μM, substrate cGMP
[6] = read-out: PDE3B inhibition IC50 μM, substrate cGMP
[7] = PDE10A inhibition IC50 μM, substrate cAMP
[8] = PDE10A inhibition IC50 μM, substrate cGMP
[9] = PDE11A inhibition IC50 μM, substrate cAMP
[10] = PDE11A inhibition IC50 μM, substrate cGMP

Sequence of PDE9A (O76083 whole entry): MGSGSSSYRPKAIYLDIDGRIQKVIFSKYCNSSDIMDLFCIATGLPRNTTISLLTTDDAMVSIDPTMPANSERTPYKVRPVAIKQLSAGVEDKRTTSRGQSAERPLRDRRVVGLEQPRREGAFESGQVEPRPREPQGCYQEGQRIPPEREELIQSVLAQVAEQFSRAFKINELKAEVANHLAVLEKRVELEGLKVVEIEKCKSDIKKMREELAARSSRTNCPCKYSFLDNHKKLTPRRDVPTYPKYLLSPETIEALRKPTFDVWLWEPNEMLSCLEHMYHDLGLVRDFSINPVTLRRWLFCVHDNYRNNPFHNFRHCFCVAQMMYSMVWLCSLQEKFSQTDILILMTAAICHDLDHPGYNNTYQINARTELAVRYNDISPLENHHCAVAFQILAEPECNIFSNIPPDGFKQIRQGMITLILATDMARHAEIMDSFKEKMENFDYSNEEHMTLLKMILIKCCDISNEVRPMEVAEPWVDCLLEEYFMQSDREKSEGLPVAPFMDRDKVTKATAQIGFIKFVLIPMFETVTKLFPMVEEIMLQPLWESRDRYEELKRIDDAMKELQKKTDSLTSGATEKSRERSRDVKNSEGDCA
Sequence of PDE10A (Q9Y233 290-1055 limits assumed): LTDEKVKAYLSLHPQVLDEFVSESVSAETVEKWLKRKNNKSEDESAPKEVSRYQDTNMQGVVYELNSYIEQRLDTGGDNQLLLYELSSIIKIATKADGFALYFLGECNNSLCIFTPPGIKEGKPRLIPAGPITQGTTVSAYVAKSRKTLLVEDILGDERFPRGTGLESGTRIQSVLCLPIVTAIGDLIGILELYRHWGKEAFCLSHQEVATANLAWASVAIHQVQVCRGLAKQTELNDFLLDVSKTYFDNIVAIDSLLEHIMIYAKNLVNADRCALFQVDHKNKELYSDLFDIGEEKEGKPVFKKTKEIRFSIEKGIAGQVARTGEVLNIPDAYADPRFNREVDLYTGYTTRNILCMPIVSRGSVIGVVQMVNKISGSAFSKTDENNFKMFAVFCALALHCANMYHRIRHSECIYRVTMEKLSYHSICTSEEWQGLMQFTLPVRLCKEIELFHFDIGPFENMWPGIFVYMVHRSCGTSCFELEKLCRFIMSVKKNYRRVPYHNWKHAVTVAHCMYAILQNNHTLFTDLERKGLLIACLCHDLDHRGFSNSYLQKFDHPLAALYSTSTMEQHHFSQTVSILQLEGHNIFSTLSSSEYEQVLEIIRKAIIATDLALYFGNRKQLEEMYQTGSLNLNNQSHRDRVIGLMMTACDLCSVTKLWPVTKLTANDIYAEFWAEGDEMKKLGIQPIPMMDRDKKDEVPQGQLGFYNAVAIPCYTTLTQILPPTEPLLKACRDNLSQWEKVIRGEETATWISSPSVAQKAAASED
Sequence of PDE11A (Q9HCR9 whole entry): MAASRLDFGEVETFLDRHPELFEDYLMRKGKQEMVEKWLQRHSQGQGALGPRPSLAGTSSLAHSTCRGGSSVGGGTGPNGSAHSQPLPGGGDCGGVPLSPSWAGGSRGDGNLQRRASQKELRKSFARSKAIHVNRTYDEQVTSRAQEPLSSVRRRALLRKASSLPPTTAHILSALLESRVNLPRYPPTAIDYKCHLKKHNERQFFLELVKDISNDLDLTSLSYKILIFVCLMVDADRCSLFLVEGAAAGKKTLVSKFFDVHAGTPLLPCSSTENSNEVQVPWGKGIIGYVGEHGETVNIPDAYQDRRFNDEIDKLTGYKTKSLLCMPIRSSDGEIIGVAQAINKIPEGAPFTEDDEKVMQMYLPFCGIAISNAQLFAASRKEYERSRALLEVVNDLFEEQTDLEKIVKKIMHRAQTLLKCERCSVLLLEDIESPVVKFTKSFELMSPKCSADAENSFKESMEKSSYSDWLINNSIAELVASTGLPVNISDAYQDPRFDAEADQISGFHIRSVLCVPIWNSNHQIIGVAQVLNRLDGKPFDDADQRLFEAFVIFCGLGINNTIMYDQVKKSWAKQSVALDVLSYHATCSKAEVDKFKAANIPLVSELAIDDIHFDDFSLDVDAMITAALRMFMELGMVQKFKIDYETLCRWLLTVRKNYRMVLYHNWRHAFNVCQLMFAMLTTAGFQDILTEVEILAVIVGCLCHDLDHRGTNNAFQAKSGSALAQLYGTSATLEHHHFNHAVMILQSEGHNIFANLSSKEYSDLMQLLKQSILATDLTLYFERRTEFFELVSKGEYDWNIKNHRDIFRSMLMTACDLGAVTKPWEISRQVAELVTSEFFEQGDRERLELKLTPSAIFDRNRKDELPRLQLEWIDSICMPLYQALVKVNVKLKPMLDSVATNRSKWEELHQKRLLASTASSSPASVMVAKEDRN
Sequence of PDE3A (Q14432 whole entry): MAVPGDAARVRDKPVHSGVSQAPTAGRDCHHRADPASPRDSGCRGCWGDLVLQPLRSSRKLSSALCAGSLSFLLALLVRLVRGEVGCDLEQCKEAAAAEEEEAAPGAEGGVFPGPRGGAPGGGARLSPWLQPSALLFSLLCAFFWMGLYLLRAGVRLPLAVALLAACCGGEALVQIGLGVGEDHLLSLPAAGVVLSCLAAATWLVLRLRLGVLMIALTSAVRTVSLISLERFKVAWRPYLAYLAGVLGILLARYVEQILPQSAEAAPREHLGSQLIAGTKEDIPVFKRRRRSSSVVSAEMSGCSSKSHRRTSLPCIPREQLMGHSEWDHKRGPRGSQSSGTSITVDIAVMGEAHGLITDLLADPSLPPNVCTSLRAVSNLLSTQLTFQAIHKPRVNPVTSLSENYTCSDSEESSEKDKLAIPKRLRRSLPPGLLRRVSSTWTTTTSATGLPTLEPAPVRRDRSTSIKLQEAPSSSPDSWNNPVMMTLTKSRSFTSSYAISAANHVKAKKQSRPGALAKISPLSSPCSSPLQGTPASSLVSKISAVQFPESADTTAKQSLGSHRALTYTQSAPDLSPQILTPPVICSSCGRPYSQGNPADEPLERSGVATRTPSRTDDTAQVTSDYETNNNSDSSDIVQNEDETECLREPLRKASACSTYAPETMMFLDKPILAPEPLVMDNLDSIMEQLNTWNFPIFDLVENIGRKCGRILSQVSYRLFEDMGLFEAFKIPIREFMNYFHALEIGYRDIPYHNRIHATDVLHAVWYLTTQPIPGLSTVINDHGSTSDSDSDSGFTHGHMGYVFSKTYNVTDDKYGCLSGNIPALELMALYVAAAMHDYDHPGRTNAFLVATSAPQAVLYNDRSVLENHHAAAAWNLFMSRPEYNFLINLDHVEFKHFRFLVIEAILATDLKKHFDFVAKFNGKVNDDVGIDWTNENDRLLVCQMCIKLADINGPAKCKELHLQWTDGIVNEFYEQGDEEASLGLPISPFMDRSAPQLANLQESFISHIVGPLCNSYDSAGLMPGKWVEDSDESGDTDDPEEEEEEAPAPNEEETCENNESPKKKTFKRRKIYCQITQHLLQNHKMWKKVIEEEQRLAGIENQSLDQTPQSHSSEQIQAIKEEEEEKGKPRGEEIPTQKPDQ
Sequence of PDE3B (Q13370 whole entry): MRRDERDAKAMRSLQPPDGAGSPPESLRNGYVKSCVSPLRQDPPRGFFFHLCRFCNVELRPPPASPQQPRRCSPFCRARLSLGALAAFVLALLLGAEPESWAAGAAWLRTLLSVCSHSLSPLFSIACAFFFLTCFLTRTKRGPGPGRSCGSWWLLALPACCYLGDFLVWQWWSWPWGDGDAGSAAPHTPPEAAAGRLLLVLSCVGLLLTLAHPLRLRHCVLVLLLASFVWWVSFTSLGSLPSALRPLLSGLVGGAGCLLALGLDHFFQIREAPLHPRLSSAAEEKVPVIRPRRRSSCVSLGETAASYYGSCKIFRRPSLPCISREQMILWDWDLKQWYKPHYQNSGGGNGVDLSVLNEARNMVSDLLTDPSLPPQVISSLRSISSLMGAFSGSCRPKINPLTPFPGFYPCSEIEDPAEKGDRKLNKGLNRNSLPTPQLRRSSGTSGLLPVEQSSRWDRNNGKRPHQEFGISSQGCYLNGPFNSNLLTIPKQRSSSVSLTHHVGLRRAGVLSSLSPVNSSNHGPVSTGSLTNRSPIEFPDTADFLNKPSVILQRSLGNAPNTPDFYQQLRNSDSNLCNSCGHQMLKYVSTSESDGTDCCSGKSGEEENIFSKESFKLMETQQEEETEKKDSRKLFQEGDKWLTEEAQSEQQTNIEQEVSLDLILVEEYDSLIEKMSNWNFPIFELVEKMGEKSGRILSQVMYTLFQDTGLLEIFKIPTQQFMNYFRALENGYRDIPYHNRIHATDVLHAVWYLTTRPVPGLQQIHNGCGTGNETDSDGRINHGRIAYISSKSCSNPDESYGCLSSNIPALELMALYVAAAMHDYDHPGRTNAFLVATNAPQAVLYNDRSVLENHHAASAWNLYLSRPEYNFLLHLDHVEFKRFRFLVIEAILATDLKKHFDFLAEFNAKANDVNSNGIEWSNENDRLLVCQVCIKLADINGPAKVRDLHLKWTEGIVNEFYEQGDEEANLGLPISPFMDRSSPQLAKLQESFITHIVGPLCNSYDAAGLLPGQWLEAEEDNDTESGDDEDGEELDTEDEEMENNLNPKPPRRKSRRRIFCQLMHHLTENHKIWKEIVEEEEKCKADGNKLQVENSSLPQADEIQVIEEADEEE
Sequence of PDE1A (P54750 whole entry): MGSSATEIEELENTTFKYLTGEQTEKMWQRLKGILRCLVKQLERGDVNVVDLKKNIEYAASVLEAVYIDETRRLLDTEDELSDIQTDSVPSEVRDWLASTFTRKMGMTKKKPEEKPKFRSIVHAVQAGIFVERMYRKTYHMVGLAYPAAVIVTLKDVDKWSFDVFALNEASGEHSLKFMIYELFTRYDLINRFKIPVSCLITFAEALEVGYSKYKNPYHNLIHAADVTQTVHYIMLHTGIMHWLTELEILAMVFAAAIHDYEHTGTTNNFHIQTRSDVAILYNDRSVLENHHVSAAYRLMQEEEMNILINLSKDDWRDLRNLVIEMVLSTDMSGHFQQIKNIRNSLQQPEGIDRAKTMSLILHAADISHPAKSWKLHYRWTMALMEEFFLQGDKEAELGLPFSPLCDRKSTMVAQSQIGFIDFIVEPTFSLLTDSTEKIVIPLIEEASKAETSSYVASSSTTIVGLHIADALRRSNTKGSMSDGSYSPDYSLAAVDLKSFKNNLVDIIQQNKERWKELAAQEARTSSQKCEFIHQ

| IC50 (human PDE5 [1]) | inhibition at 10 µM (human PDE5 [1]) | IC50 (PDE1A) | IC50 (PDE1A; [3]) | IC50 (PDE2A) | IC50 (PDE2A; [4]) | IC50 (PDE3A) | IC50 (PDE3A; [5]) | IC50 (PDE3B) | IC50 (PDE3B; [6]) | IC50 (PDE9A) | IC50 (PDE10A; [7]) | IC50 (PDE10A; [8]) | IC50 (PDE11A; [9]) | IC50 (PDE11A; [10]) | selectivity profile (selectivity index) PDE5 versus PDE11 (PDE11A) | Structure (SMILES) | further results |
| --- | --- | --- | --- | --- | --- | --- | --- | --- | --- | --- | --- | --- | --- | --- | --- | --- | --- |
| 0.051 µM | 101% | > 50 µM | > 50 µM | > 50 µM | > 50 µM | > 50 µM | > 50 µM | > 50 µM | > 50 µM | > 50 µM | > 50 µM | > 50 µM | 44 µM | 35.7 µM | 700 | CCN1C(=O)[C@@H]2Cc3c([nH]c4ccccc34)[C@@H](c3ccc(Br)cc3)N2C1=O [Compound 8, (5R,11aS)-5-(4-Bromophenyl)-2-ethyl-5,6,11,11a-tetrahydro-1H-imidazo[1′,5′:1,6]pyrido[3,4-b]indole-1,3(2H)-dione] | – |
| 0.019 µM | 98% | > 50 µM | > 50 µM | > 50 µM | > 50 µM | > 50 µM | > 50 µM | > 50 µM | > 50 µM | > 50 µM | > 50 µM | 41.7 µM | 0.6 µM | 0.27 µM | 14 | CN1CC(=O)N2[C@H](c3ccc(Br)cc3)c3[nH]c4ccccc4c3C[C@@H]2C1=O [Compound 25, (6R,12aR)-6-(4-Bromophenyl)-2-methyl-2,3,6,7,12,12a-hexahydropyrazino [1′,2′:1,6]pyrido[3,4-b]indole-1,4-dione] | – |
| 0.012 µM | 91% | > 50 µM | > 50 µM | > 50 µM | > 50 µM | > 50 µM | > 50 µM | > 50 µM | > 50 µM | > 50 µM | > 50 µM | > 50 µM | 1.3 µM | 1.13 µM | 94 | CN1CC(=O)N2[C@H](c3ccc(Br)cc3)c3[nH]c4ccccc4c3C[C@H]2C1=O [Compound 28, (6R,12aS)-6-(4-Bromophenyl)-2-methyl-2,3,6,7,12,12a-hexahydropyrazino [1′,2′:1,6]pyrido[3,4-b]indole-1,4-dione] | – |
| 0.003 µM | 96% | > 50 µM | > 50 µM | > 50 µM | > 50 µM | > 50 µM | > 50 µM | > 50 µM | > 50 µM | > 50 µM | 26.1 µM | 14.7 µM | 0.3 µM | 0.27 µM | 90 | CCN1CC(=O)N2[C@H](c3ccc(Br)cc3)c3[nH]c4ccccc4c3C[C@@H]2C1=O [Compound 29, (6R,12aR)-2-Ethyl-6-(4-bromophenyl)-2,3,6,7,12,12a-hexahydropyrazino [1′,2′:1,6]pyrido[3,4-b]indole-1,4-dione] | times improved activity compared to five member congener 5 (human PDE5 [1]; PDE5 IC50, 29 versus 5): 1000 times |
| – | – | – | > 50 µM | – | > 50 µM | – | > 50 µM | – | > 50 µM | – | – | – | – | – | 67 | CCCCN1CC(=O)N2[C@H](c3ccc(Br)cc3)c3[nH]c4ccccc4c3C[C@@H]2C1=O [Compound 33] | % PDE5 inhibition at 10 μM (human PDE5 [1]; 10 μM, triplicate): 87%; IC50 (human PDE5 [1]; read-out: IC50 μM (PDE5), 8 concentrations 1 nM–10 μM): 0.009 µM; IC50 (human PDE5 [1]; read-out: PDE5A inhibition IC50 μM, substrate cAMP (as printed in sub-head)): 0.009 µM; IC50 (PDE1A; read-out: PDE1A inhibition IC50 μM, substrate cAMP): > 50 µM; IC50 (PDE2A; read-out: PDE2A inhibition IC50 μM, substrate cAMP): > 50 µM; IC50 (PDE3A; read-out: PDE3A inhibition IC50 μM, substrate cAMP): > 50 µM; IC50 (PDE3B; read-out: PDE3B inhibition IC50 μM, substrate cAMP): > 50 µM; IC50 (PDE9A; read-out: PDE9A inhibition IC50 μM, substrate cGMP): > 50 µM; IC50 (PDE10A; read-out: PDE10A inhibition IC50 μM, substrate cAMP): > 50 µM; IC50 (PDE10A; read-out: PDE10A inhibition IC50 μM, substrate cGMP): > 50 µM; IC50 (PDE11A; read-out: PDE11A inhibition IC50 μM, substrate cAMP): 1.2 µM; IC50 (PDE11A; read-out: PDE11A inhibition IC50 μM, substrate cGMP): 0.6 µM |
| – | 12% | – | – | – | – | – | – | – | – | – | – | – | – | – | – | CC(C)(C)N1CC(=O)N2[C@@H](c3ccc(Br)cc3)c3[nH]c4ccccc4c3C[C@H]2C1=O [Compound 39, (6S,12aS)-6-(4-Bromophenyl)-2-tert-butyl-2,3,6,7,12,12a-hexahydropyrazino[1′,2′:1,6]pyrido[3,4-b]indole-1,4-dione] | – |
| – | 21% | – | – | – | – | – | – | – | – | – | – | – | – | – | – | CC(C)(C)N1CC(=O)N2[C@H](c3ccc(Br)cc3)c3[nH]c4ccccc4c3C[C@H]2C1=O [Compound 40, (6R,12aS)-6-(4-Bromophenyl)-2-tert-butyl-2,3,6,7,12,12a-hexahydropyrazino[1′,2′:1,6]pyrido[3,4-b]indole-1,4-dione] | – |
| – | – | > 50 µM | > 50 µM | > 50 µM | > 50 µM | > 50 µM | > 50 µM | > 50 µM | > 50 µM | > 50 µM | > 50 µM | > 50 µM | – | – | – | CN1CC(=O)N2[C@H](c3ccc4c(c3)OCO4)c3[nH]c4ccccc4c3C[C@@H]2C1=O [Compound I, tadalafil, reference compound] | % PDE5 inhibition at 10 μM (human PDE5 [2]): 100% |
